Reference: patent US9278118B2, “Pharmaceutical combination for the treatment and/or chemosensibilization of refractory tumors to anticancer drugs” (Centro de Ingenieria Genetica Y Biotecnologia, priority 2006, dated 2016)
Read-outs that look alike come from different tables or passages of the source.

Assays:
[1] = system: H-125 or OCI-AML3 cells; experiment: Cell viability (MTS) assay, simultaneous P15 peptide + cytostatic drug, 72 hours; type: cell-based, human
Experimental: Finally, the cell viability and the IC50 values were determined as above described in this invention.

[2] = system: H-125 cells; experiment: Cell viability (MTS) assay, sequential: P15 pre-treatment, then cytostatic drug
[3] = system: H-125 or OCI-AML3 tumor cells; experiment: Cancer animal model, human tumor xenografted in nude mice, simultaneous administration; type: in vivo, nude mice (Nu/Nu, BalBC); details: for interaction with P15, antitumor effect in vivo: administered along with P15, FIG. 4; for antitumor effect (tumor volume): cytostatic 1 mg/kg/day i.p. concomitantly with P15 0.5 mg/kg/day i.p., 5 days, FIG. 1A-1C
Experimental: (§1) The animal model used in this invention was based on the implantation of human tumors in nude mice (Nu/Nu, BalBC). […] After tumor debut (approx. 30 mm^3), treatment was started using the pharmaceutical combination described in this invention. To evaluate the antitumor effect of the pharmaceutical combination, the tumor mass volume was measured and the respective volume was calculated using the formule: V=widght^2×lenght/2.
(§2) After tumor debut, the ingredients of the pharmaceutical combination were administered as follow: The P15 peptide in saline solution was administered intraperitoneal at 0.5 mg/kg/day during 5 days. Concomitantly, intraperitoneal injection of cisplatin (FIG. 1A), or cyclophosphamide (FIG. 1B) or Mitomycin (FIG. 1C) were performed at 1 mg/kg/day in the same frequency. The cytostatic drugs are also solved in saline solution. Tumor volume was registered as described above in this invention.

[4] = system: SW948 cells; experiment: Cell viability (MTS) assay, P15 pre-treatment on intrinsic drug-refractory tumor cells; type: cell-based, human
[5] = system: SW948 cells; experiment: In vivo chemosensibilization, SW948 tumors in nude mice, sequential administration; details: P15 0.5 mg/kg/day i.p. 5 days, then cytostatic 5 mg/kg/day 5 days, FIG. 2A-2C
Experimental: The animal model used in this invention was based on the implantation of human tumors in nude mice (Nu/Nu, BalBC). Briefly, 5×10^6 H-125 or OCI-AML3 cells were suspended in Phosphate Buffer Solution (PBS) and inoculated subcutaneously. After tumor debut (approx. 30 mm^3), treatment was started using the pharmaceutical combination described in this invention. To evaluate the antitumor effect of the pharmaceutical combination, the tumor mass volume was measured and the respective volume was calculated using the formule: V=widght^2×lenght/2.
For this purpose, 5×10^6 SW948 cells were implanted in nude mice as previously described in this invention. After tumor debut the pharmaceutical combination was sequentially administered as follow: First, the P15 peptide ingredient was administered intraperitoneal at 0.5 mg/kg/day during 5 days. Subsequently, cisplatin (FIG. 2A), Paclitaxel (FIG. 2B) and doxorubicin (FIG. 2C) were administered at 5 mg/kg/day during further 5 days. […] These findings also provide the evidences that the pharmaceutical combination in this invention is able to bypass the commonly observed intrinsic tumor resistance when the ingredients are sequentially administered.

[6] = system: OCI-AML3 cells; experiment: Animal model of AML, P15 + anti-leukemic chemotherapeutics; type: in vivo, nude mice (Nu/Nu, BalBC); details: combination with P15, animal model of AML; FIG. 3
Experimental: as §1, §2

[7] = system: Nucleofosmin; experiment: P15-regulated protein profile, nuclear extracts of H-125 cells; type: cell-based, human; details: down-regulated Nucleofosmin, P15 40 minutes
[8] = system: T-Plastin; experiment: as above; type: cell-based, human; details: down-regulated T-Plastin, P15 40 minutes
[9] = system: Y-box1 transcription factor; experiment: as above; type: cell-based, human; details: down-regulated Y-box1 transcription factor, P15 40 minutes
[10] = system: Eritropoietin precursor; experiment: as above; type: cell-based, human; details: down-regulated Eritropoietin precursor, P15 40 minutes
[11] = system: Gliceraldehyde 6-phosphate deshydrogenase; details: down-regulated Gliceraldehyde 6-phosphate deshydrogenase; H-125 cells, P15 40 minutes
Experimental: (§3) H-125 cells were treated or not with the P15 peptide ingredient of the pharmaceutical combination described in this invention during 40 minutes. Subsequently, cell monolayers were washed with PBS and cells were scrapped from the surface. […] To analyze the P15-regulated proteins, the respective nuclear protein extracts were alternatively solved by 2D bidimensional gels (pH 4-7) and/or Liquid chromatography (nano HPLC) coupled to Mass spectrometer.
(§4) For this purpose, nuclear protein extracts coming from H-125 cells treated or not with the P15 peptide ingredient were analyzed as previously described in this invention.

[12] = system: Glucose-6-phosphate isomerase; details: down-regulated Glucose-6-phosphate isomerase; H-125 cells, P15 40 minutes
Experimental: as §3, §4

[13] = system: Heat Shock Proteins (HSP-27, -70 y -90); details: down-regulated Heat Shock Proteins (HSP-27, -70 y -90); H-125 cells, P15 40 minutes
Experimental: as §3, §4

[14] = system: Piruvate kinase; details: down-regulated Piruvate kinase; H-125 cells, P15 40 minutes
Experimental: as §3, §4

[15] = system: Proteasome activator complex; details: down-regulated Proteasome activator complex; H-125 cells, P15 40 minutes
Experimental: as §3, §4

[16] = system: S-gluthathione transferase; details: down-regulated S-gluthathione transferase; H-125 cells, P15 40 minutes
Experimental: as §3, §4

[17] = system: Tubulin alpha-1; details: up-regulated Tubulin alpha-1; H-125 cells, P15 40 minutes
Experimental: as §3, §4

[18] = system: Tubulin beta-2; details: up-regulated Tubulin beta-2; H-125 cells, P15 40 minutes
Experimental: as §3, §4

[19] = system: Tubulin beta-3; details: up-regulated Tubulin beta-3; H-125 cells, P15 40 minutes
Experimental: as §3, §4

[20] = system: Ubiquitin activated E1 enzyme; details: down-regulated Ubiquitin activated E1 enzyme; H-125 cells, P15 40 minutes
Experimental: as §3, §4

[21] = system: Translational controled tumor protein; experiment: P15-regulated protein profile, nuclear extracts of H-125 cells; type: cell-based, human; details: down-regulated Translational controled tumor protein, P15 40 minutes
[22] = system: Prohibitin; experiment: as above; type: cell-based, human; details: up-regulated Prohibitin, P15 40 minutes
[23] = H-125 or OCI-AML3 cells, 72 hours, simultaneous P15 50 μM, read-out: IC50, Cytostatic drug + P15 (50 μM)
[24] = Homo sapiens, H-125 or OCI-AML3 cells, 72 hours, no P15, read-out: IC50, Cytostatic drug alone
[25] = read-out: IC50, Cytostatic drug + P15 (10 μM), H-125 or OCI-AML3 cells, 72 hours, simultaneous P15 10 μM
[26] = Homo sapiens, NCI-H125, read-out: IC50, Cytostatic drug alone
[27] = H-125 or OCI-AML3 cells, 72 hours, no P15, read-out: IC50, Cytostatic drug alone
[28] = read-out: IC50, Cytostatic drug alone, H-125 cells, 72 hours, no P15 pre-treatment
[29] = Homo sapiens, P15 pre-treatment, read-out: IC50, Cytostatic drug + P15 pre-treatment
[30] = Homo sapiens, no P15 pre-treatment, read-out: IC50, Cytostatic drug alone

Compound	IC50 [1, 23] [µM]	IC50 [1, 24] [µM]	IC50 [1, 25] [µM]	IC50 [2, 26] [µM]	other results
N.N.O=C([O-])C1(C(=O)[O-])CCC1.[Pt+2] [Carboplatin, carboplatin]	0.036		0.07		IC50 [1, 27]: 0.65 µM; interaction with P15, antitumor effect in vivo [3]: synergistic interactions; IC50 [2, 28]: 0.45 µM
N.N.[Cl][Pt][Cl] [Cisplatin, cisplatin]	0.04		0.53		IC50 [1, 27]: 0.72 µM; IC50 ([4]; P15 pre-treatment, read-out: IC50, Cytostatic drug + P15 pre-treatment): 120 µM; IC50 ([4]; no P15 pre-treatment, read-out: IC50, Cytostatic drug alone): ≥ 1000 µM; antitumor effect (tumor volume) [3]: complete tumor regression; chemosensibilization in vivo (tumor response to cytostatic) [5]: revert the chemorefractory phenotype; IC50 [2, 28]: 0.72 µM
O=P1(N(CCCl)CCCl)NCCCO1 (stereo not shown) [Cyclophosphamide, cyclophosphamide]				2.4	IC50 ([1]; Homo sapiens, 72 h, read-out: IC50, Cytostatic drug alone): 2.4 µM; IC50 ([1]; read-out: IC50, Cytostatic drug + P15 (10 μM)): 1 µM; IC50 ([1]; read-out: IC50, Cytostatic drug + P15 (50 μM)): 0.085 µM; antitumor effect (tumor volume) [3]: complete tumor regression; IC50 ([2]; read-out: IC50, Cytostatic drug + P15 pre-treatment): 0.1 µM
Nc1nc(F)nc2c1ncn2[C@@H]1O[C@H](CO)[C@@H](O)[C@@H]1O [Fludarabine, fludarabine]	0.05	0.87	0.096	0.865	
CO[C@@]12[C@H](COC(N)=O)C3=C(C(=O)C(C)=C(N)C3=O)N1C[C@@H]1N[C@@H]12 [Mitomycin C, mitomycin C]	0.009	0.994	0.093	0.994	antitumor effect (tumor volume) [3]: complete tumor regression
O=C1c2c(O)ccc(O)c2C(=O)c2c(NCCNCCO)ccc(NCCNCCO)c21 [Mitoxantrone, mitoxantrone]	0.032	0.754	0.064	0.7	interaction with P15, antitumor effect in vivo [6]: great synergistic interaction
CWMSPRHLGTC [P15]					Inhibition rate [7]: 48; Inhibition rate [8]: 3.34; Inhibition rate [9]: 3.33; Inhibition rate [10]: 120; Inhibition rate [11]: 6.62; Inhibition rate [12]: 8.53; Inhibition rate [13]: 2.5; Inhibition rate [14]: 8.34; Inhibition rate [15]: 3.35; Inhibition rate [16]: 4.87; Activation rate [17]: 3.23; Activation rate [18]: 2.56; Activation rate [19]: 3.15; Inhibition rate [20]: 2.49; Inhibition rate [21]: 4.32; Activation rate [22]: 2.28

The next lines start with results.

IC50 [1, 23] [µM]	IC50 [1, 24] [µM]	IC50 [1, 25] [µM]	Compound	IC50 [2, 26] [µM]	other results
0.06	1.2	0.42	O=c1[nH]cc(F)c(=O)[nH]1 [5-Fluorouracil, 5-fluorouracil]	1.2	
0.068	1	0.11	Nc1ccn([C@@H]2O[C@H](CO)[C@@H](O)[C@@H]2O)c(=O)n1 [Cytarabine (AraC), cytarabine]	0.98	interaction with P15, antitumor effect in vivo [6]: great synergistic interaction
0.076	0.423	0.2	COc1cccc2c1C(=O)c1c(O)c3c(c(O)c1C2=O)C[C@@](O)(C(=O)CO)C[C@@H]3O[C@H]1C[C@H](N)[C@H](O)[C@H](C)O1 [Doxorubicin, doxorubicin]	0.423	IC50 [4, 29]: 320 µM; IC50 [4, 30]: ≥ 1000 µM; chemosensibilization in vivo (tumor response to cytostatic) [5]: revert the chemorefractory phenotype
0.02	0.78	0.06	COc1cc([C@@H]2c3cc4c(cc3[C@@H](O[C@@H]3O[C@@H]5CO[C@@H](C)O[C@H]5[C@H](O)[C@H]3O)[C@H]3COC(=O)[C@H]23)OCO4)cc(OC)c1O [Etoposide, etoposide]	0.561	interaction with P15, antitumor effect in vivo [3]: synergistic interactions
0.003	0.017	0.008	CC(=O)O[C@H]1C(=O)[C@@]2(C)[C@H]([C@H](OC(=O)c3ccccc3)[C@]3(O)C[C@H](OC(=O)[C@H](O)[C@@H](NC(=O)c4ccccc4)c4ccccc4)C(C)=C1C3(C)C)[C@]1(OC(C)=O)CO[C@@H]1C[C@@H]2O [Paclitaxel, paclitaxel]	0.017	IC50 [4, 29]: 97 µM; IC50 [4, 30]: ≥ 1000 µM; chemosensibilization in vivo (tumor response to cytostatic) [5]: revert the chemorefractory phenotype
0.7	2	1.2	CC(C)C[C@H](NC(=O)[C@H](Cc1ccccc1)NC(=O)c1cnccn1)B(O)O [Velcade, Bortezomib]	2	
0.008	0.856	0.1	CC[C@]1(O)C[C@H]2CN(CCc3c([nH]c4ccccc34)[C@@](C(=O)OC)(c3cc4c(cc3OC)N(C=O)[C@H]3[C@@](O)(C(=O)OC)[C@H](OC(C)=O)[C@]5(CC)C=CCN6CC[C@]43[C@@H]65)C2)C1 [Vincristin, vincristin]	0.856	
